Results as given in ChEMBL document CHEMBL4616601, “Meeting organometallic chemistry with drug discovery: CH activation enabled discovery of a new ring system of 12H-Indazolo[2,1-a]cinnolin-12-ones with anti-proliferation activity” (Bioorg Med Chem Lett, 2020).
The source made the active and inactive calls. How the calls were made is not given here.

How the values were obtained:
PC-3 [1] = assay: Induction of cell cycle arrest in human PC3 cells assessed as accumulation at G1 phase at 100 nM after 24 hrs by flow cytometry (reference value: 56.46%); type: functional
PC-3 [2] = assay: Induction of cell cycle arrest in human PC3 cells assessed as accumulation at S phase at 100 nM after 24 hrs by flow cytometry (reference value: 24.73%); type: functional
PC-3 [3] = assay: Induction of apoptosis in human PC3 cells assessed as viable cells at 250 nM after 24 hrs by Annexin V-FITC/propidium iodide staining-based flow cytometry (reference value: 75.33%); type: functional; conditions: PC-3, 24 h, read-out: Activity
PC-3 [4] = assay: Induction of apoptosis in human PC3 cells after 24 hrs by Annexin V-FITC/propidium iodide staining-based flow cytometry; type: functional, cell-based
PC-3 [5] = assay: Induction of apoptosis in human PC3 cells assessed as late apoptotic cells at 50 nM after 24 hrs by Annexin V-FITC/propidium iodide staining-based flow cytometry (reference value: 12.21%); type: functional
PC-3 [6] = assay: Induction of apoptosis in human PC3 cells assessed as reduction in caspase-3 expression after 24 hrs by Western blot analysis; type: functional, cell-based
PC-3 [7] = assay: Induction of apoptosis in human PC3 cells assessed as necrotic cells at 100 nM after 24 hrs by Annexin V-FITC/propidium iodide staining-based flow cytometry (reference value: 0.58%); type: functional
PC-3 [8] = assay: Induction of cell cycle arrest in human PC3 cells assessed as accumulation at G2/M phase at 50 nM after 24 hrs by flow cytometry (reference value: 18.81%); type: functional
HepG2 = assay: Antiproliferative activity against human HepG2 cells assessed as reduction in cell viability; type: functional, cell-based
PC-3 [9] = assay: Antiproliferative activity against human PC3 cells assessed as inhibition of cell viability at 0.5 to 5 uM after 72 hrs by CCK8 assay; type: functional, cell-based
PC-3 [10] = assay: Induction of apoptosis in human PC3 cells assessed as early apoptotic cells at 100 nM after 24 hrs by Annexin V-FITC/propidium iodide staining-based flow cytometry (reference value: 11.88%); type: functional
PC-3 [11] = assay: Antiproliferative activity against human PC3 cells at 0.5 uM assessed as inhibition of cell viability after 72 hrs by CCK-8 assay relative to control; type: functional; conditions: PC-3, 72 h
PC-3 [12] = assay: Induction of cell cycle arrest in human PC3 cells assessed as accumulation at S phase at 250 nM after 24 hrs by flow cytometry (reference value: 24.73%); type: functional
PC-3 [13] = assay: Induction of apoptosis in human PC3 cells assessed as late apoptotic cells at 250 nM after 24 hrs by Annexin V-FITC/propidium iodide staining-based flow cytometry (reference value: 12.21%); type: functional
PC-3 [14] = assay: Induction of apoptosis in human PC3 cells assessed as early apoptotic cells at 250 nM after 24 hrs by Annexin V-FITC/propidium iodide staining-based flow cytometry (reference value: 11.88%); type: functional
PC-3 [15] = assay: Inhibition of colony formation in human PC3 cells at 250 nM after 1 week relative to control; type: functional; conditions: PC-3, 168 h
PC-3 [16] = assay: Induction of apoptosis in human PC3 cells assessed as viable cells at 50 nM after 24 hrs by Annexin V-FITC/propidium iodide staining-based flow cytometry (reference value: 75.33%); type: functional; conditions: PC-3, 24 h, read-out: Activity
PC-3 [17] = assay: Induction of cell cycle arrest in human PC3 cells assessed as accumulation at G2/M phase after 24 hrs by flow cytometry; type: functional, cell-based
SW1990 = assay: Antiproliferative activity against human SW1990 cells assessed as reduction in cell viability; type: functional, cell-based
HeLa = assay: Antiproliferative activity against human HeLa cells assessed as reduction in cell viability; type: functional, cell-based
PC-3 [18] = assay: Induction of apoptosis in human PC3 cells assessed as early apoptotic cells at 50 nM after 24 hrs by Annexin V-FITC/propidium iodide staining-based flow cytometry (reference value: 11.88%); type: functional
PC-3 [19] = assay: Induction of apoptosis in human PC3 cells assessed as increase in PARP cleavage after 24 hrs by Western blot analysis; type: functional, cell-based
SK-BR-3 = assay: Antiproliferative activity against human SKBR3 cells assessed as reduction in cell viability; type: functional, cell-based
PANC-1 = assay: Antiproliferative activity against human PANC1 cells assessed as reduction in cell viability after 72 hrs; type: functional, cell-based; conditions: PANC-1, 72 h
PC-3 [20] = assay: Induction of cell cycle arrest in human PC3 cells assessed as accumulation at G1 phase at 50 nM after 24 hrs by flow cytometry (reference value: 56.46%); type: functional
PC-3 [21] = assay: Induction of apoptosis in human PC3 cells assessed as reduction in PARP expression level after 24 hrs by Western blot analysis; type: functional, cell-based
PC-3 [22] = assay: Induction of cell cycle arrest in human PC3 cells assessed as accumulation at G2/M phase at 250 nM after 24 hrs by flow cytometry (reference value: 18.81%); type: functional
PC-3 [23] = assay: Inhibition of colony formation in human PC3 cells after 1 week; type: functional, cell-based
PC-3 [24] = assay: Induction of cell cycle arrest at G2/M phase in human PC3 cells assessed as increase in CDC2 expression after 24 hrs by Western blot analysis; type: functional, cell-based
PC-3 [25] = assay: Induction of cell cycle arrest in human PC3 cells assessed as accumulation at G1 phase at 250 nM after 24 hrs by flow cytometry (reference value: 56.46%); type: functional
PC-3 [26] = assay: Induction of apoptosis in human PC3 cells assessed as necrotic cells at 250 nM after 24 hrs by Annexin V-FITC/propidium iodide staining-based flow cytometry (reference value: 0.58%); type: functional
NCI-H1299 = assay: Antiproliferative activity against human NCI-H1299 cells assessed as reduction in cell viability; type: functional, cell-based
PC-3 [27] = assay: Induction of cell cycle arrest in human PC3 cells assessed as accumulation at S phase at 50 nM after 24 hrs by flow cytometry (reference value: 24.73%); type: functional
PC-3 [28] = assay: Induction of apoptosis in human PC3 cells assessed as viable cells at 100 nM after 24 hrs by Annexin V-FITC/propidium iodide staining-based flow cytometry (reference value: 75.33%); type: functional; conditions: PC-3, 24 h, read-out: Activity
PC-3 [29] = assay: Induction of cell cycle arrest at G2/M phase in human PC3 cells assessed as increase in cyclin B1 expression after 24 hrs by Western blot analysis; type: functional, cell-based
PC-3 [30] = assay: Inhibition of colony formation in human PC3 cells at 50 nM after 1 week relative to control; type: functional; conditions: PC-3, 168 h
PC-3 [31] = assay: Antiproliferative activity against human PC3 cells assessed as reduction in cell viability after 72 hrs by CCK8 assay; type: functional, cell-based; conditions: PC-3, 72 h
HCT-116 = assay: Antiproliferative activity against human HCT116 cells assessed as reduction in cell viability; type: functional, cell-based
PC-3 [32] = assay: Induction of apoptosis in human PC3 cells assessed as necrotic cells at 50 nM after 24 hrs by Annexin V-FITC/propidium iodide staining-based flow cytometry (reference value: 0.58%); type: functional
DU-145 = assay: Antiproliferative activity against human DU145 cells assessed as reduction in cell viability; type: functional, cell-based
PC-3 [33] = assay: Induction of cell cycle arrest in human PC3 cells assessed as accumulation at G2/M phase at 100 nM after 24 hrs by flow cytometry (reference value: 18.81%); type: functional
PC-3 [34] = assay: Induction of apoptosis in human PC3 cells assessed as late apoptotic cells at 100 nM after 24 hrs by Annexin V-FITC/propidium iodide staining-based flow cytometry (reference value: 12.21%); type: functional

Q: For CCOC(=O)c1c(C)n2c3ccccc3c(=O)n2c2ccc3c(c12)OCO3, which Activity (PC-3 [1]) is on record?
A: 46.89%

Q: What about the Activity (PC-3 [2]) of the same molecule?
A: 22.46%

Q: And the viability at 0.25 µM (PC-3 [3])?
A: 4.73%

Q: And the Activity (PC-3 [4])?
A: Dose-dependent effect

Q: And the Activity (PC-3 [5])?
A: 37.02%

Q: What about the Activity (PC-3 [6]) of the same molecule?
A: Dose-dependent effect

Q: What about the Activity (PC-3 [7]) of the same molecule?
A: 12.2%

Q: And the Activity (PC-3 [8])?
A: 21.45%

Q: What about the IC50 (HepG2) of the same molecule?
A: 0.041 to 0.188 µM

Q: And the Activity (PC-3 [9])?
A: Active

Q: What about the Activity (PC-3 [10]) of the same molecule?
A: 18.52%

Q: What about the inhibition at 0.5 µM (PC-3 [11]) of the same molecule?
A: 62.8%

Q: What about the Activity (PC-3 [12]) of the same molecule?
A: 24.16%

Q: What about the Activity (PC-3 [13]) of the same molecule?
A: 62.42%

Q: And the Activity (PC-3 [14])?
A: 27.88%

Q: And the inhibition at 0.25 µM (PC-3 [15])?
A: 98%

Q: And the viability at 0.05 µM (PC-3 [16])?
A: 34.7%

Q: What about the Activity (PC-3 [17]) of the same molecule?
A: Dose-dependent effect

Q: What about the IC50 (SW1990) of the same molecule?
A: 0.041 to 0.188 µM

Q: What about the IC50 (HeLa) of the same molecule?
A: 0.041 to 0.188 µM

Q: And the Activity (PC-3 [18])?
A: 25.82%

Q: And the Activity (PC-3 [19])?
A: Dose-dependent effect

Q: And the IC50 (SK-BR-3)?
A: 0.041 to 0.188 µM

Q: And the IC50 (PANC-1)?
A: 0.197 µM

Q: And the Activity (PC-3 [20])?
A: 55.12%

Q: And the Activity (PC-3 [21])?
A: Dose-dependent effect

Q: What about the Activity (PC-3 [22]) of the same molecule?
A: 61.78%

Q: What about the inhibition (PC-3 [23]) of the same molecule?
A: Dose-dependent effect

Q: And the Activity (PC-3 [24])?
A: Dose-dependent effect

Q: And the Activity (PC-3 [25])?
A: 14.06%

Q: What about the Activity (PC-3 [26]) of the same molecule?
A: 4.97%

Q: What about the IC50 (NCI-H1299) of the same molecule?
A: 0.041 to 0.188 µM

Q: What about the Activity (PC-3 [27]) of the same molecule?
A: 23.43%

Q: And the viability at 0.1 µM (PC-3 [28])?
A: 13%

Q: What about the Activity (PC-3 [29]) of the same molecule?
A: Dose-dependent effect

Q: And the inhibition at 0.05 µM (PC-3 [30])?
A: 85%

Q: And the IC50 (PC-3 [31])?
A: 0.159 µM

Q: And the IC50 (HCT-116)?
A: 0.041 to 0.188 µM

Q: And the Activity (PC-3 [32])?
A: 2.48%

Q: And the IC50 (DU-145)?
A: 0.041 to 0.188 µM

Q: And the Activity (PC-3 [33])?
A: 30.65%

Q: And the Activity (PC-3 [34])?
A: 56.27%
